Read-outs that look alike come from different tables or passages of the source. Values belong to the molecule of their own block, whether it stands above or below them.
Key:
[1] = PK study of the 12 alkaloids in rat plasma after oral administration of ZJ and FZJ extract (LC–MS/MS); assay type: in vivo
Description: The time schedule included 15 time-points and six rats were sampled at each time-point. All the rats were orally administered with ZJ extract (suspended in water) at a dose of 3.38 g/kg body weight (dosages of the 12 alkaloids were shown in Table S4), equivalent to crude drug dose of 12 g/kg body weight. Blood samples were collected from the suborbital vein of the rats at 10, 20, 30, 60, 90, 120, 180, 240, 300, 330, 360, 480, 720, 1440, 2160 min after administration, and centrifuged immediately at 5000 rpm for 10 min. The plasma samples were stored at −20 °C until analysis.
Similarly, the time schedule of other rats included 15 time-points and six rats were orally administered with FZJ extract at a dose of 3.76 g/kg body weight (also equivalent to crude drug dose of 12 g/kg body weight, Table S4). Blood samples were collected and treated as mentioned above in the PK study of ZJ extract.
PK parameters of the 12 alkaloids including AUC0→t, AUC0→∞, mean retention time (MRT0→t, MRT0→∞), and elimination half-life (t1/2) were calculated with non-compartmental method by DAS 2.0 software (Mathematical Pharmacology Professional Committee of China, Shanghai, China). Maximum plasma drug concentration (Cmax) and time to reach the maximum plasma drug concentration (Tmax) were observed directly from the detected C–T data. The results were expressed as arithmetic mean ± standard deviation (SD).

[2] = Stability of analytes in rat plasma under storage conditions; assay type: physicochemical; settings: n = 6; for Stability RE, 3 freeze-thaw cycles / Stability RE, 30 days at −20 °C: rat plasma; for Stability RE, processed samples' stability: room temperature 24 h
Description: The stabilities of analytes in plasma were assessed by analyzing the QC samples at three concentration levels under the following storage conditions: after three freeze (−20 °C)-thaw (room temperature) cycles; stored at −20 °C for 30 days, and comparing the results with those of freshly prepared QC samples. Stabilities of the processed samples at room temperature for 24 h were also assessed.

Caco-2 cell monolayer = settings: cited from earlier work
[3] = jejunum vs ileum and colon; cited from earlier work
P-gp = settings: not told; cited from earlier work
[4] = Two-compartment model fitting of C–T curves (DAS 2.0); assay type: in vivo, rat
Description: Double peaks in C–T curves were observed repeatedly in the PK study of ZJ and related TCM prescriptions, but explanations to the phenomenon were still ambiguous. Generally, possible reasons for the double peak phenomenon could be summarized as follows: (a) enterohepatic circulation; […] (c) irregular pattern of gastric emptying. […] Moreover, Tmax of the alkaloids after administration of ZJ extract were deferred from that of FZJ administration. […] It probably play a major role in the double peak phenomenon, since the GI motility can affect the drug absorption.

[5] = Dose modified systemic exposure (AUC0→∞/D, Cmax/D)
Description: Because the alkaloids content in ZJ and FZJ were no longer linear with the proportion of CR and EF after extraction process, AUC0→∞/D (ratio of AUC0→∞ and dose) and Cmax/D (ratio of Cmax and dose) were calculated to estimate the dose modified systemic exposure levels of the 12 alkaloids (Table 3). […] Physicochemical properties of these alkaloids had been calculated in silico to predict their human colon adenocarcinoma cell (Caco-2) permeability according to the three-property based rule (3PRule). Polar surface area (PSA), logarithm of the n-octanol/water distribution coefficient (LogD), molecular weight (MW), hydrogen bond donors (HBD), hydrogen bond acceptors (HBA), number of free rotatable bonds (NRB) and molar solubility (S) of the alkaloids were retrieved from SciFinder® (American Chemical Society).

Csec (drug concentration of the secondary peak in C–T curve) ([1]; rat, in vivo, po): 117.29 ± 45.45 ng/mL | Tsec (time of the secondary peak in C–T curve) ([1]; rat, in vivo, po): 90 min | AUC(0-inf) ([1]; rat, in vivo, po, 3.38 g/kg): 0.537 ± 0.055 µg·h/mL | AUC(0-t) ([1]; rat, in vivo, po, 3.38 g/kg): 0.532 ± 0.0578 µg·h/mL | Cmax ([1]; rat, in vivo, po, 3.38 g/kg): 0.155 ± 0.0279 µg/mL | MRT inf ([1]; rat, in vivo, po, 3.38 g/kg): 4.71 h | MRT last ([1]; rat, in vivo, po, 3.38 g/kg): 4.34 h | Tmax ([1]; rat, in vivo, po, 3.38 g/kg): 4 h | half-life ([1]; rat, in vivo, po, 3.38 g/kg): 3.21 ± 2.27 h | AUC(0-inf) ([1]; rat, in vivo, po, 3.76 g/kg): 0.286 ± 0.0241 µg·h/mL | AUC(0-t) ([1]; rat, in vivo, po, 3.76 g/kg): 0.275 ± 0.0232 µg·h/mL | Cmax ([1]; rat, in vivo, po, 3.76 g/kg): 0.0853 ± 0.0134 µg/mL | MRT inf ([1]; rat, in vivo, po, 3.76 g/kg): 5.96 h | MRT last ([1]; rat, in vivo, po, 3.76 g/kg): 4.66 h | Tmax ([1]; rat, in vivo, po, 3.76 g/kg): 1.5 h | half-life ([1]; rat, in vivo, po, 3.76 g/kg): 5.03 ± 2.87 h | Stability RE, 3 freeze-thaw cycles ([2]; high QC concentration): 5.86% | Stability RE, 30 days at −20 °C ([2]; high QC concentration): 4.85% | Stability RE, 3 freeze-thaw cycles ([2]; low QC concentration): 4.36% | Stability RE, 30 days at −20 °C ([2]; low QC concentration): −6.34% | Stability RE, 3 freeze-thaw cycles ([2]; medium QC concentration): 14.45% | Stability RE, 30 days at −20 °C ([2]; medium QC concentration): −1.12% | Stability RE, processed samples' stability ([2]; high QC concentration): −1.09% | Stability RE, processed samples' stability ([2]; low QC concentration): −0.76% | Stability RE, processed samples' stability ([2]; medium QC concentration): 4.78%
SMILES: C[n+]1c2n(c(=O)c3ccccc31)CCc1c-2[nH]c2ccccc12 [dehydroevodiamine]
Papp (Caco-2 cell monolayer): 126 nm/s

AUC(0-inf) ([1]; rat, in vivo, po, 3.38 g/kg): 0.0966 ± 0.0332 µg·h/mL | AUC(0-t) ([1]; rat, in vivo, po, 3.38 g/kg): 0.0883 ± 0.0249 µg·h/mL | Cmax ([1]; rat, in vivo, po, 3.38 g/kg): 0.0341 ± 0.0192 µg/mL | MRT inf ([1]; rat, in vivo, po, 3.38 g/kg): 8.75 h | MRT last ([1]; rat, in vivo, po, 3.38 g/kg): 6.74 h | Tmax ([1]; rat, in vivo, po, 3.38 g/kg): 1.5 h | half-life ([1]; rat, in vivo, po, 3.38 g/kg): 5.65 ± 2.41 h | AUC(0-inf) ([1]; rat, in vivo, po, 3.76 g/kg): 0.0189 ± 0.0055 µg·h/mL | AUC(0-t) ([1]; rat, in vivo, po, 3.76 g/kg): 0.0182 ± 0.00498 µg·h/mL | Cmax ([1]; rat, in vivo, po, 3.76 g/kg): 0.00974 ± 0.00353 µg/mL | MRT inf ([1]; rat, in vivo, po, 3.76 g/kg): 4.49 h | MRT last ([1]; rat, in vivo, po, 3.76 g/kg): 3.86 h | Tmax ([1]; rat, in vivo, po, 3.76 g/kg): 3 h | half-life ([1]; rat, in vivo, po, 3.76 g/kg): 2.51 ± 1.73 h | Stability RE, 3 freeze-thaw cycles ([2]; high QC concentration): −12.89% | Stability RE, 30 days at −20 °C ([2]; high QC concentration): −12.35% | Stability RE, 3 freeze-thaw cycles ([2]; low QC concentration): −14.23% | Stability RE, 30 days at −20 °C ([2]; low QC concentration): −17.74% | Stability RE, 3 freeze-thaw cycles ([2]; medium QC concentration): −7.2% | Stability RE, 30 days at −20 °C ([2]; medium QC concentration): −13.85% | Stability RE, processed samples' stability ([2]; high QC concentration): −12.47% | Stability RE, processed samples' stability ([2]; low QC concentration): −9.27% | Stability RE, processed samples' stability ([2]; medium QC concentration): −2.85%
SMILES: COc1cc2c(cc1OC)-c1cc3ccc(OC)c(OC)c3c[n+]1CC2 [palmatine]
absorption rate constant (Ka) compared between intestinal sites [3]: greater than that at ileum and colon | P-gp substrate (P-gp): P-gp substrates

AUC(0-t) ([1]; 3.38 g/kg, rat plasma, oral ZJ extract, mean ± SD, n = 6, read-out: AUC0→t): 0.0115 ± 0.0014 µg·h/mL | AUC(0-inf) ([1]; 3.38 g/kg, rat plasma, oral ZJ extract, mean ± SD, n = 6, read-out: AUC0→∞): 0.0128 ± 0.00143 µg·h/mL | Cmax ([1]; 3.38 g/kg, rat plasma, oral ZJ extract, mean ± SD, n = 6, read-out: Cmax): 0.00345 ± 0.00173 µg/mL | MRT last ([1]; 3.38 g/kg, rat plasma, oral ZJ extract, mean ± SD, n = 6, read-out: MRT0→t (converted)): 3.86 h | MRT inf ([1]; 3.38 g/kg, rat plasma, oral ZJ extract, mean ± SD, n = 6, read-out: MRT0→∞ (converted)): 5.22 h | half-life ([1]; 3.38 g/kg, rat plasma, oral ZJ extract, mean ± SD, n = 6, read-out: t1/2): 3.64 ± 1.5 h | Tmax ([1]; 3.38 g/kg, rat plasma, oral ZJ extract, read-out: Tmax (converted)): 1.5 h | AUC(0-t) ([1]; 3.76 g/kg, rat plasma, oral FZJ extract, mean ± SD, n = 6, read-out: AUC0→t): 0.0483 ± 0.00886 µg·h/mL | AUC(0-inf) ([1]; 3.76 g/kg, rat plasma, oral FZJ extract, mean ± SD, n = 6, read-out: AUC0→∞): 0.0501 ± 0.00881 µg·h/mL | Cmax ([1]; 3.76 g/kg, rat plasma, oral FZJ extract, mean ± SD, n = 6, read-out: Cmax): 0.0107 ± 0.00443 µg/mL | MRT last ([1]; 3.76 g/kg, rat plasma, oral FZJ extract, mean ± SD, n = 6, read-out: MRT0→t (converted)): 5.77 h | MRT inf ([1]; 3.76 g/kg, rat plasma, oral FZJ extract, mean ± SD, n = 6, read-out: MRT0→∞ (converted)): 6.89 h | half-life ([1]; 3.76 g/kg, rat plasma, oral FZJ extract, mean ± SD, n = 6, read-out: t1/2): 4.92 ± 1.83 h | Tmax ([1]; 3.76 g/kg, rat plasma, oral FZJ extract, read-out: Tmax (converted)): 0.5 h | Tsec (time of the secondary peak in C–T curve) ([1]; rat plasma, oral ZJ extract): 20 min | Csec (drug concentration of the secondary peak in C–T curve) ([1]; rat plasma, oral ZJ extract, mean ± SD, n = 6): 2.55 ± 0.38 ng/mL | AIC (Akaike's information criterion method), two-compartment model fitting ([4]; oral FZJ extract): 66.844 ± 7.076 | r^2 (correlation coefficient method), two-compartment model fitting ([4]; oral FZJ extract): 0.519 ± 0.407 | AIC (Akaike's information criterion method), two-compartment model fitting ([4]; oral ZJ extract): 35.057 ± 11.851 | r^2 (correlation coefficient method), two-compartment model fitting ([4]; oral ZJ extract): 0.544 ± 0.140 | AUC0→∞/D (ratio of AUC0→∞ and dose) ([5]; oral FZJ extract): 278.39 | Cmax/D (ratio of Cmax and dose) ([5]; oral FZJ extract): 59.61 | AUC0→∞/D (ratio of AUC0→∞ and dose) ([5]; oral ZJ extract): 172.57 | Cmax/D (ratio of Cmax and dose) ([5]; oral ZJ extract): 46.62 | Stability RE, 3 freeze-thaw cycles ([2]; high QC concentration): 0.37% | Stability RE, 30 days at −20 °C ([2]; high QC concentration): −1.38% | Stability RE, 3 freeze-thaw cycles ([2]; low QC concentration): 18.91% | Stability RE, 30 days at −20 °C ([2]; low QC concentration): 14.46% | Stability RE, 3 freeze-thaw cycles ([2]; medium QC concentration): −14.69% | Stability RE, 30 days at −20 °C ([2]; medium QC concentration): −10.79% | Stability RE, processed samples' stability ([2]; high QC concentration): −10.58% | Stability RE, processed samples' stability ([2]; low QC concentration): 15.1% | Stability RE, processed samples' stability ([2]; medium QC concentration): −14.07%
SMILES: Cn1c(=O)n(CCC2(O)C(=O)Nc3ccccc32)c(=O)c2ccccc21 (stereo not drawn) [wuchuyuamide-I]

Source: publication PMC6155683, “Pharmacokinetics Studies of 12 Alkaloids in Rat Plasma after Oral Administration of Zuojin and Fan-Zuojin Formulas” (Molecules : A Journal of Synthetic Chemistry and Natural …, 2017)
